This passage reports IC50 results from ChEMBL document CHEMBL5360622, “Leucettinibs, a Class of DYRK/CLK Kinase Inhibitors Inspired by the Marine Sponge Natural Product Leucettamine B” (J Med Chem, 2023).

Assay [1] has as its target Dual specificity tyrosine-phosphorylation-regulated kinase 1A (Homo sapiens, UniProt Q13627).
The target in assay [2] is Cyclin-dependent kinase 5/CDK5 activator 1 (Homo sapiens, UniProt Q00535). It is filed as cell-based, Sf9.
Assay [3] deals with Glycogen synthase kinase-3 beta (Homo sapiens, UniProt P49841). It is filed as cell-based, Sf9.
Chain of Glycogen synthase kinase-3 beta (P49841 whole entry): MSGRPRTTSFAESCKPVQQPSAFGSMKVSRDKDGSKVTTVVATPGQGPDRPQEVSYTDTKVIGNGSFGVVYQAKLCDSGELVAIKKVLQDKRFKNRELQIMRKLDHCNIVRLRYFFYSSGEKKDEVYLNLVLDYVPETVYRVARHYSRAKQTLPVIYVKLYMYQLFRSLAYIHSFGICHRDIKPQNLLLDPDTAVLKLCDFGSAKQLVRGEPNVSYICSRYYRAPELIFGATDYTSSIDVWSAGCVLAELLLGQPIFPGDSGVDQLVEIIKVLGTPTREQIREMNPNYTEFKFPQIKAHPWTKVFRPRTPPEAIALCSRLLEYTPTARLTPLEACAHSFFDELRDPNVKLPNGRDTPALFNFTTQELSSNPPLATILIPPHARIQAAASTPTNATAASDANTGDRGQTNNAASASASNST
The target in assay [4] is Dual specificity protein kinase CLK1 (Homo sapiens, UniProt P49759). It is filed as cell-based, Sf9.
Chain of Dual specificity protein kinase CLK1 (P49759 whole entry, canonical isoform): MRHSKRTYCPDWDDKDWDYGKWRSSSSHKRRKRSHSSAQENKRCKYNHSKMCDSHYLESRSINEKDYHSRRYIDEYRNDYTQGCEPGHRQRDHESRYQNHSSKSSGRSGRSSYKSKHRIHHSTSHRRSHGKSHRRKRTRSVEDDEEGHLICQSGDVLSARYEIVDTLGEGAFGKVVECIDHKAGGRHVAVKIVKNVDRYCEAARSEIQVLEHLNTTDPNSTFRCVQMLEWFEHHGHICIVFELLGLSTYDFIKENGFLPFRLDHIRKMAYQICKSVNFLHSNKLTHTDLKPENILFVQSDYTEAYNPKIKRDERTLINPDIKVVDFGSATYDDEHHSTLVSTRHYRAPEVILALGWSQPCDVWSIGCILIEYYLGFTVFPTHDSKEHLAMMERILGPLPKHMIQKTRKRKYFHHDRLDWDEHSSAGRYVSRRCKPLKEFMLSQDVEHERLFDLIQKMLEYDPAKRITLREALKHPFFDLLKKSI
For assay [5], the target named is Casein kinase I isoform epsilon (Homo sapiens, UniProt P49674).
Chain of Casein kinase I isoform epsilon (P49674 whole entry, canonical isoform): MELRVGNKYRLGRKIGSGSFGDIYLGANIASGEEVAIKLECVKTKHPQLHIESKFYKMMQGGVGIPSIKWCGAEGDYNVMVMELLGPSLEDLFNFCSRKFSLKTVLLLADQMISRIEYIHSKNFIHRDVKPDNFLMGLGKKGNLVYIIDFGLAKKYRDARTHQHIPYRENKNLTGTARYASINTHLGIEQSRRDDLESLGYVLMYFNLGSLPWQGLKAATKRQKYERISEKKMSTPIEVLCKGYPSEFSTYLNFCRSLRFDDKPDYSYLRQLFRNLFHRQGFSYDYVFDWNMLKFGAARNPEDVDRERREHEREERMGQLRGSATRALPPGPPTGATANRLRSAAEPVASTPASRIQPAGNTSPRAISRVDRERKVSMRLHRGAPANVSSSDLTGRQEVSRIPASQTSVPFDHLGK
Assay [6] deals with Dual specificity protein kinase CLK2 (Homo sapiens, UniProt P49760).
Chain of Dual specificity protein kinase CLK2 (P49760 whole entry): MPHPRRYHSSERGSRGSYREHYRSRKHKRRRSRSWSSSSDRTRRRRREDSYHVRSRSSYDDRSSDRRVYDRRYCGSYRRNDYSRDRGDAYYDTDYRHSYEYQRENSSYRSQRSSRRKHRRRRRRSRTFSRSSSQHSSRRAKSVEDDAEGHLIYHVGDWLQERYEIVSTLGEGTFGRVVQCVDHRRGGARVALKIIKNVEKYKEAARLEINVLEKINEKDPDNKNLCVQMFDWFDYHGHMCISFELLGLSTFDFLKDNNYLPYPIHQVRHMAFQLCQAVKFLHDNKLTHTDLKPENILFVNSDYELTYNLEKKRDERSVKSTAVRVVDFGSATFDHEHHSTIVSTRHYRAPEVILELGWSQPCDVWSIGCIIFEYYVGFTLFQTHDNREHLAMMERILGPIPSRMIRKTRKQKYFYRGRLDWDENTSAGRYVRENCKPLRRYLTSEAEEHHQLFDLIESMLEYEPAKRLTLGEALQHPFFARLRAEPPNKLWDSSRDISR
For assay [7], the target named is T1, Dual specificity tyrosine-phosphorylation-regulated kinase 2 (Homo sapiens, UniProt Q92630).
T1 sequence (Q92630 whole entry): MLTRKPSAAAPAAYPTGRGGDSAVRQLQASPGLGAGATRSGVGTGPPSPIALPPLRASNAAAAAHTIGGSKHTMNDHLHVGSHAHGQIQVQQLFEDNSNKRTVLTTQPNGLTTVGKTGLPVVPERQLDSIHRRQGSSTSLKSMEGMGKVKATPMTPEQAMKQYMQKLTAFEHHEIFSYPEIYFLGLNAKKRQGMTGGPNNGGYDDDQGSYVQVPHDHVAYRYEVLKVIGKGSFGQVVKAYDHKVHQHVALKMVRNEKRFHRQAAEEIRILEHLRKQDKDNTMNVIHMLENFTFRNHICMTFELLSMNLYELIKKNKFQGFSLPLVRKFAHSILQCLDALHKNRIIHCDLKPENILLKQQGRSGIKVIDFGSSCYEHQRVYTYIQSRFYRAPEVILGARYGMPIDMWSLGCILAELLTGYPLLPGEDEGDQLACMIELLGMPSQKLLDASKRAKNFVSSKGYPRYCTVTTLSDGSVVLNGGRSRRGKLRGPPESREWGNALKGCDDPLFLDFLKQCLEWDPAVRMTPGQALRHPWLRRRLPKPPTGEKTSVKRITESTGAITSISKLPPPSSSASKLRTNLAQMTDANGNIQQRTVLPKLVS

The target of assay [8] is Dual specificity protein kinase CLK4 (Homo sapiens, UniProt Q9HAZ1).
Chain of Dual specificity protein kinase CLK4 (Q9HAZ1 whole entry): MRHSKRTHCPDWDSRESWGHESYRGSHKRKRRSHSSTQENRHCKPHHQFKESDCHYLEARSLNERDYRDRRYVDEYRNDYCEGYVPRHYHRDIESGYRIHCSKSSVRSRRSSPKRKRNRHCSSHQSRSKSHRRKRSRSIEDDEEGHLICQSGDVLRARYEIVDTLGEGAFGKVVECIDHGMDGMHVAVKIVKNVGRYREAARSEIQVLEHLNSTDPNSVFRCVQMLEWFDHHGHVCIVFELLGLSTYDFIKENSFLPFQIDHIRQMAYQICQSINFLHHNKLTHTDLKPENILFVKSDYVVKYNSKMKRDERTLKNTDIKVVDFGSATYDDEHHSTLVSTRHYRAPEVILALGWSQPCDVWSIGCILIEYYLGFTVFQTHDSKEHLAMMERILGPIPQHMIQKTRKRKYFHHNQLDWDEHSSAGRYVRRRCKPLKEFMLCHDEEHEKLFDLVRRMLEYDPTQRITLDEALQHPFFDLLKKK
The target of assay [9] is Dual specificity protein kinase CLK3 (Homo sapiens, UniProt P49761). It is filed as cell-based, Sf9.
Chain of Dual specificity protein kinase CLK3 (P49761 whole entry): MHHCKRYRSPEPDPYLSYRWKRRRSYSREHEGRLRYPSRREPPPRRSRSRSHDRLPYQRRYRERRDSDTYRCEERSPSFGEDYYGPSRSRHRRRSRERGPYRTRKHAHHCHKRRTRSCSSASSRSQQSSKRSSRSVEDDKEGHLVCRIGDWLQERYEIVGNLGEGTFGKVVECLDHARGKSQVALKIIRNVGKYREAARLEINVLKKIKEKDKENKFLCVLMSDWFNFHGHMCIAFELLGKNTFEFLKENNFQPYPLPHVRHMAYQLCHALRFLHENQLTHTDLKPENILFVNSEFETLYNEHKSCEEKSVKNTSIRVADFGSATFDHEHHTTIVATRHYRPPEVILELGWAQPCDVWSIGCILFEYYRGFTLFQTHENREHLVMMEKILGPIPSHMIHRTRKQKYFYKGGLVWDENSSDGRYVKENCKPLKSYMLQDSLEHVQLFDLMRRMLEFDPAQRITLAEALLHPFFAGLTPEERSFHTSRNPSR
Assay [10] has as its target T2, Dual specificity tyrosine-phosphorylation-regulated kinase 3 (Homo sapiens, UniProt O43781).
T2 sequence (O43781 whole entry): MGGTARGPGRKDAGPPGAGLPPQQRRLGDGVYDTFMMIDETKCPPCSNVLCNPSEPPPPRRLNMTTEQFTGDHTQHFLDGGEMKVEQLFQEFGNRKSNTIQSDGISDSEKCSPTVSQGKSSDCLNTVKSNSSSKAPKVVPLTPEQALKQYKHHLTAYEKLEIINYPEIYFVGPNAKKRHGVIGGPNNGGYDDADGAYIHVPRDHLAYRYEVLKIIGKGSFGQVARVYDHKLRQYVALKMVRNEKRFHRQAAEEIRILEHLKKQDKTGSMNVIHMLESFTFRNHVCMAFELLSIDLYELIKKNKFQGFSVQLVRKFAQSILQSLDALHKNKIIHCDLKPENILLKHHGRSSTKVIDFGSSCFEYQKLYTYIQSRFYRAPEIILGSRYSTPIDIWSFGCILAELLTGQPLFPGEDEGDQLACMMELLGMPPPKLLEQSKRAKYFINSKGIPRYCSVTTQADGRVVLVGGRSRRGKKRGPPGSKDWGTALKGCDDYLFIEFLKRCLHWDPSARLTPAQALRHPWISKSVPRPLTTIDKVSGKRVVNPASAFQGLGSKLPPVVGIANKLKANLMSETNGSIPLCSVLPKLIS

Assay [11] concerns the target T3, Dual specificity tyrosine-phosphorylation-regulated kinase 4 (Homo sapiens, UniProt Q9NR20).
T3 sequence (Q9NR20 whole entry): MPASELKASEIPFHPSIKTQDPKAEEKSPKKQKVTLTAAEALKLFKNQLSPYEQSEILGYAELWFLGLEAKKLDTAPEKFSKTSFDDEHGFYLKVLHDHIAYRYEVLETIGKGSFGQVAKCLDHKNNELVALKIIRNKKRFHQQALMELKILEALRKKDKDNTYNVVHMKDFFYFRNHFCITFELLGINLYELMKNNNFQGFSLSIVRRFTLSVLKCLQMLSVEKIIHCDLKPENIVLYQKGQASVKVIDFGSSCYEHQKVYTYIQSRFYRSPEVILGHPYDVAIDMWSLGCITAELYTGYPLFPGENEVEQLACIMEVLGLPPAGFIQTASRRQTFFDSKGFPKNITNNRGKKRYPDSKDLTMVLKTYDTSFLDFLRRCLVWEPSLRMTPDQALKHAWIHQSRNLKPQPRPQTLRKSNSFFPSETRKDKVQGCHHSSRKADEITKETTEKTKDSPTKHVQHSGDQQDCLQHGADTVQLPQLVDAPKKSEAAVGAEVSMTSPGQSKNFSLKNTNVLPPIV

Chain of Cyclin-dependent kinase 5/CDK5 activator 1 (Q00535 whole entry): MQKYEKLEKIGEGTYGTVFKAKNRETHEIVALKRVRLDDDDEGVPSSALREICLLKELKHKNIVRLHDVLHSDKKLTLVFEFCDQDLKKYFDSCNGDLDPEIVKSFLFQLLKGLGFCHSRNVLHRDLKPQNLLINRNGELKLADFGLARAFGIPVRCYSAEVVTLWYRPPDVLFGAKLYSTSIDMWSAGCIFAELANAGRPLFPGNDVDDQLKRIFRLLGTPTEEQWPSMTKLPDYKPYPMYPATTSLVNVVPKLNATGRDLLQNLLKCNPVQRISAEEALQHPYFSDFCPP
Chain of Cyclin-dependent kinase 5/CDK5 activator 1 (Q15078 whole entry, further chain): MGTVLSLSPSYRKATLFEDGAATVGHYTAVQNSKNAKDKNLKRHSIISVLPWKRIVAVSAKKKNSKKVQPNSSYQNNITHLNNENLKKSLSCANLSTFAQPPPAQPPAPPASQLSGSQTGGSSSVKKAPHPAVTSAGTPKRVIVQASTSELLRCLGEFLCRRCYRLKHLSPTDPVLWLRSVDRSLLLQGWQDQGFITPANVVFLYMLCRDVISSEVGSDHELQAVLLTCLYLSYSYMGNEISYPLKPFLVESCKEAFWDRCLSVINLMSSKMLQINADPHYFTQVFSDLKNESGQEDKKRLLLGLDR

For `O=C1NC(NC2CCCCCC2)=N/C1=C\c1ccc2[nH]ncc2c1`, the IC50 in assay [1] was 33 nM; in assay [2], over 10000 nM; in assay [3], 3950 nM; in assay [4], 139 nM; in [5], over 10000 nM; in [6], 725 nM. Further, the 50% inhibitory concentration (IC50) in [7] came to 1870 nM; in [8], 112 nM; in assay [9] it was 266 nM.
For the compound `O=C1NC(NCc2ccccc2OC(F)(F)F)=N/C1=C\c1ccc2ncsc2c1`, the IC50 in assay [2] is over 10000 nM; in assay [3] it was over 10000 nM; in assay [4] it was 34 nM; in assay [6], 124 nM; in assay [7] it was over 10000 nM; in [10], over 10000 nM. The figures for the IC50 in assay [8], in assay [9] and in [11] were 37 nM, 2870 nM and over 10000 nM, respectively.
Consider `O=C1NC(NC2CCCCCC2)=N/C1=C\c1ccc2c(c1)CCO2`, for which the concentration for half-maximal inhibition (IC50) in assay [2] was over 10000 nM; in assay [3], over 10000 nM; in assay [4], 24 nM; in [5], over 10000 nM; in assay [6] it was 1460 nM; in assay [7] it was over 10000 nM. Moreover, the half-inhibitory concentration (IC50) is 4170 nM in [10], 9 nM in [8], over 10000 nM in [9] and 4890 nM in assay [11].
For the compound `Cn1ncc2cc(/C=C3\N=C(NC45CC6CC(CC(C6)C4)C5)NC3=O)ccc21`, the IC50 in assay [2] is over 10000 nM; in [3], over 10000 nM; in [4] it was 142 nM; in assay [5], over 10000 nM; in assay [6], 4000 nM; in [7], 363 nM. The IC50 in assay [10] worked out at 307 nM; in assay [8], 125 nM; in [9], 2220 nM; in assay [11], 1630 nM.
Consider `Cn1cnc2ccc(/C=C3\N=C(NC4CCCCC4)NC3=O)cc21`, for which the IC50 in assay [1] was 93 nM; in [2], over 10000 nM; in [3], over 10000 nM; in assay [4], 20 nM; in assay [7], 1470 nM; in assay [8] it was 8 nM. Besides, the concentration for half-maximal inhibition (IC50) in assay [9] worked out at 1080 nM; in assay [11] it was 1110 nM.
As to `O=C1NC(NC2CCCCCC2)=N/C1=C\c1ccc2[nH]cnc2c1`, the IC50 was 98 nM in assay [1]; over 10000 nM in [2]; over 10000 nM in assay [3]; 31 nM in [4]; 507 nM in [6]; 2180 nM in assay [7]. The concentration for half-maximal inhibition (IC50) in [8] worked out at 8 nM; in assay [9], 1550 nM; in assay [11], 865 nM.
Consider `Cn1cnc2ccc(/C=C3\N=C(NC4CCCCCC4)NC3=O)cc21`, for which the IC50 in assay [1] was 67 nM; in [2], 8700 nM; in assay [3], over 10000 nM; in [4], 17 nM; in assay [5], over 10000 nM; in assay [6], 102 nM. Moreover, the IC50 in assay [7] was 1490 nM; in assay [10], 758 nM; in assay [9], 804 nM; in assay [11], 1040 nM.
With `CC(C)C[C@H](COCc1ccccc1)NC1=N/C(=C\c2ccc3ncsc3c2)C(=O)N1`, the IC50 in assay [2] was over 10000 nM; in assay [3], 5190 nM; in assay [4], 220 nM; in assay [5], over 10000 nM; in [6] it was 2230 nM; in assay [7] it was 946 nM. The IC50 stood at 5430 nM in assay [10], 86 nM in assay [8], 5700 nM in assay [9] and 2670 nM in assay [11].
As for `O=C1NC(NC2CCCCCC2)=N/C1=C\c1ccc2scnc2c1`, the IC50 in assay [2], in assay [3], in assay [4], in assay [5], in assay [6] and in [7] was over 10000 nM in each case. Moreover, the IC50 in assay [10] is over 10000 nM; in [8], 8170 nM; in [9] it was over 10000 nM.
As to `Cn1cc2cc(/C=C3\N=C(NC45CC6CC(CC(C6)C4)C5)NC3=O)ccc2n1`, the 50% inhibitory concentration (IC50) is 2 nM in assay [1]; over 10000 nM in assay [2]; over 10000 nM in assay [3]; 4 nM in assay [4]; over 10000 nM in [5]; 40 nM in [10]. For the same compound, the IC50 in [9] was over 10000 nM; in [11] it was 4300 nM.
`O=C1NC(NC2CCCCC2)=N/C1=C\c1ccc2[nH]ncc2c1`: the IC50 in assay [1] was 263 nM; in assay [2] it was over 10000 nM; in assay [3], over 10000 nM; in assay [4] it was 541 nM; in [5], over 10000 nM; in assay [6] it was 2350 nM. For the same compound, the IC50 is 794 nM in [9] and over 10000 nM in [11].
Turning to `O=C1NC(NC2CCCCC2)=N/C1=C\c1ccc2nnsc2c1`, the half-maximal inhibitory concentration (IC50) is over 10000 nM in assay [2]; over 10000 nM in assay [3]; 852 nM in [4]; 5580 nM in assay [6]; over 10000 nM in [7]; over 10000 nM in assay [10]. Also, the figures for the half-inhibitory concentration (IC50) in assay [8], in [9] and in assay [11] were 392 nM, 8820 nM and over 10000 nM, respectively.
In the case of `Cn1cc2cc(/C=C3\N=C(NC4CCCCCC4)NC3=O)ccc2n1`, the IC50 was over 10000 nM in assay [2]; over 10000 nM in assay [3]; 67 nM in [4]; over 10000 nM in [5]; 2180 nM in assay [6]; 1500 nM in assay [7]. Further, the IC50 in [10] turned out to be 1030 nM; in assay [8], 55 nM; in assay [9] it was 1410 nM; in [11], 3020 nM.
Turning to `COC(=O)[C@@H](NC1=N/C(=C\c2ccc3ncsc3c2)C(=O)N1)C(C)O` (some centres not stated), the 50% inhibitory concentration (IC50) in assay [1] was 3 nM; in [2] it was over 10000 nM; in assay [3], 6030 nM; in assay [5] it was over 10000 nM; in assay [6] it was 20 nM; in assay [7], 513 nM. Also, the IC50 in assay [10] was found to be 302 nM; in [8] it was 3 nM; in assay [9], 920 nM; in assay [11], 699 nM.
For the compound `Cn1cc2cc(/C=C3\N=C(NC4CCCCC4)NC3=O)ccc2n1`, the half-maximal inhibitory concentration (IC50) was 570 nM in assay [1]; over 10000 nM in [2]; over 10000 nM in [3]; 951 nM in assay [4]; over 10000 nM in assay [5]; 6330 nM in assay [6]. The IC50 was 3700 nM in [7], 4130 nM in [10], 4530 nM in assay [9] and over 10000 nM in assay [11].
As to `O=C1NC(Nc2ccccc2)=N/C1=C\c1ccc2ncsc2c1`, the concentration for half-maximal inhibition (IC50) in assay [2] was over 10000 nM; in [3], 2220 nM; in assay [4] it was 13 nM; in [5], over 10000 nM; in assay [6], 113 nM; in assay [10] it was 710 nM. Besides, the half-maximal inhibitory concentration (IC50) in [8] was found to be 5 nM; in assay [9], 698 nM.
